Laboratory results: US12358892B2, “Metalloenzyme inhibitors for treating cancers, Alzheimer's disease, hemochromatosis, and other disorders” (Miralogx LLC, priority 2020, dated 2025)

Columns and labels:
[1] = system: 12 human primary cell-based systems; experiment: BioMAP Diversity PLUS panel, protein biomarker readouts and cytotoxicity
Text: This example describes testing the compound prepared in Example 1 in the BioMAP Diversity PLUS (Eurofins Discovery, Burlingame, California) panel of 12 human primary cell-based systems designed to model different aspects of the human body in an in vitro format. The 12 systems in the Diversity PLUS panel allow test agent characterization in an unbiased way across a broad set of systems modeling various human disease states. BioMAP systems are constructed with one or more primary cell types from healthy human donors, with stimuli (such as cytokines or growth factors) added to capture relevant signaling networks that naturally occur in human tissue or pathological conditions. Vascular biology is modeled in both a Th1 (3C system) and a Th2 (4H system) inflammatory environment, as well as in a Th1 inflammatory state specific to arterial smooth muscle cells (CASM3C system). Additional systems recapitulate aspects of the systemic immune response including monocyte-driven Th1 inflammation (LPS system) or T cell stimulation (SAg system), chronic Th1 inflammation driven by macrophage activation (lMphg system) and the T cell-dependent activation of B cells that occurs in germinal centers (BT system). The BE3C system (Th1) and the BF4T system (Th2) represent airway inflammation of the lung, while the MyoF system models myofibroblast-lung tissue remodeling. Lastly, skin biology is addressed in the KF3CT system modeling Th1 cutaneous inflammation and the HDF3CGF system modeling wound healing.
The X-axis lists the quantitative protein-based biomarker readouts measured in each system. The Y-axis represents a log-transformed ratio of the biomarker readouts for the drug-treated sample (n=1) over vehicle controls (n≥6). The grey region around the Y-axis represents the 95% significance envelope generated from historical vehicle controls. Biomarker activities are annotated when two or more consecutive concentrations change in the same direction relative to vehicle controls, are outside of the significance envelope, and have at least one concentration with an effect size >20% (|log 10 ratio|>0.1). Biomarker key activities are described as modulated if these activities increase in some systems, but decrease in others. Cytotoxicity is indicated on the profile plot by a thin black arrow above the X-axis, and antiproliferative effects are indicated by a thick grey arrow. Cytotoxicity and antiproliferative arrows only require one concentration to meet the indicated threshold for profile annotation. As summarized in Table 2 below, the compound was active with 35 annotated readouts. Specifically, the compound impacted inflammation-related activities (decreased Eotaxin 3, VCAM-1, MCP-1, SAA, sTNFα, MIP-1α; increased IL-1α, IL-6; modulated IL-8), immunomodulatory activities (decreased CD40, sIL-1β, sIgG, M-CSF, sIL-17A, sIL-6, sIL-17F, sIL-2), tissue remodeling activities (decreased PAI-1, uPAR, αSMA, Keratin 8/18; increased collagen I, MMP-1), and hemostasis-related activities (increased TF).
BioMAP® panels consist of human primary cell-based systems designed to model different aspects of the human body in an in vitro format. BioMAP® systems are constructed with one or more primary cell types from healthy human donors, with stimuli (such as cytokines or growth factors) added to capture relevant signaling networks that naturally occur in human tissue or pathological conditions. Vascular biology is modeled in both a Th1 (3C system) and a Th2 (4H system) inflammatory environment, as well as in a Th1 inflammatory state specific to arterial smooth muscle cells (CASM3C system). Additional systems recapitulate aspects of the systemic immune response including monocyte-driven Th1 inflammation (LPS system) or T cell stimulation (SAg system), chronic Th1 inflammation driven by macrophage activation (Mphg system) and the T cell-dependent activation of B cells that occurs in germinal centers (BT system). […]

B cells = experiment: BioMAP proliferation readout, B cells; type: cell-based, human; details: 100 μM, 33 μM, 11 μM
Text: The X-axis lists the quantitative protein-based biomarker readouts measured in each system. The Y-axis represents a log-transformed ratio of the biomarker readouts for the drug-treated sample (n=1) over vehicle controls (n≥6). The grey region around the Y-axis represents the 95% significance envelope generated from historical vehicle controls. Biomarker activities are annotated when two or more consecutive concentrations change in the same direction relative to vehicle controls, are outside of the significance envelope, and have at least one concentration with an effect size >20% (|log 10 ratio|>0.1). Biomarker key activities are described as modulated if these activities increase in some systems, but decrease in others. […] As summarized in Table 2 below, the compound was active with 35 annotated readouts. […]
Human primary cells in BioMAP® systems are used at early passage (passage 4 or earlier) to minimize adaptation to cell culture conditions and preserve physiological signaling responses. […] Test agents prepared in either DMSO (small molecules; final concentration ≤0.1%) or PBS (biologics) are added at the indicated concentrations 1-hr before stimulation, and remain in culture for 24-hrs or as otherwise indicated (48-hrs, MyoF system; 72-hrs, BT system (soluble readouts); 168-hrs, BT system (secreted IgG)). […]

[2] = Example 3.2, hemostasis-related activities
[3] = Example 3.2, immunomodulatory activities
[4] = Example 3.2, inflammation-related activities
[5] = Example 3.2, tissue remodeling activities

## C1=NC(c2cncc(C3CCC=N3)c2)CC1 (stereo not drawn) [3,5-bis(3,4-dihydro-2H-pyrrol-2-yl)pyridine]
[1]; Example 3.2
  LDLR: decrease
[1]; [2]
  TF: increased
  TM: decreased
[1]; [3]
  CD38: decreased
  CD40: decreased
  HLA-DR: decreased
  sIL-1β: decreased
  sIL-2: decreased
  sIL-6: decreased
  sIL-17A: decreased
  sIL-17F: decreased
  sIgG: decreased
[1]; [4]
  Eotaxin 3: decreased
  IL-6: decreased
  IL-8: modulated
  MCP-1: decreased
  MIG: decreased
  P-selectin: decreased
  VCAM-1: decreased
  sPGE2: increased
  sTNFα: modulated
[1]; [5]
  Collagen IV: decreased
  MMP9: decreased
  MMP-1: decreased
  PAI-1: decreased
  TIMP-1: decreased
  alphaSMA: decreased
  uPAR: decreased
[1]; at the concentrations tested in this study
  cytotoxicity: not cytotoxic
B cells
  antiproliferative effect on B cells: antiproliferative
